The values that follow come from ChEMBL document CHEMBL1148059, “Isolation and structure elucidation of new nitrile and mustard oil glycosides from Moringa oleifera and their effect on blood pressure” (1994).

SMILES strings stand for the structures. Active and inactive are the calls of the source. The calls are words filed in the database; no cut-off is given here.

The test system of assay [1] is Rattus norvegicus. The experiment in a line: Hypotensive activity against normotensive anesthetized Wistar rat assessed as reduction in mean arterial blood pressure at 3 ug/kg, iv. Type of assay: functional. Details: scale not given: the % may be the effect or the level left.
Assay [2] relates to Rattus norvegicus. The experiment in a line: Hypotensive activity against normotensive anesthetized Wistar rat assessed as reduction in mean arterial blood pressure up to 5 ug/kg, iv. Type of assay: functional, organism-based.
Assay [3] relates to Rattus norvegicus. The experiment in a line: Hypotensive activity against normotensive anesthetized Wistar rat assessed as reduction in mean arterial blood pressure up to 5 mg/kg, iv.
Assay [4] relates to Rattus norvegicus. Put plainly: Hypotensive activity against normotensive anesthetized Wistar rat assessed as reduction in mean arterial blood pressure at 3 mg/kg, iv. Details: scale not given: the % may be the effect or the level left.
Assay [5] has as its system Rattus norvegicus. The experiment in a line: Hypotensive activity against normotensive anesthetized Wistar rat assessed as reduction in mean arterial blood pressure at 1 ug/kg, iv. It counts as functional. Also noted: scale not given: the % may be the effect or the level left.

`CCOC(=S)NCc1ccc(O[C@@H]2O[C@@H](C)[C@H](OC(C)=O)[C@@H](O)[C@H]2O)cc1` [listing 1 of 3 here]: in the assay on Rattus norvegicus [1], the Activity is 37.51%.

On to `CCOC(=S)NCc1ccc(O[C@@H]2O[C@@H](C)[C@H](OC(C)=O)[C@@H](O)[C@H]2O)cc1` [listing 2 of 3 here], for which the outcome in the assay on Rattus norvegicus [2] was Active. Consider `CCOC(=S)NCc1ccc(O[C@@H]2O[C@@H](C)[C@H](OC(C)=O)[C@@H](O)[C@H]2O)cc1` [listing 3 of 3 here], for which, in the assay on Rattus norvegicus [1], the Activity is reported as 40.33%. Regarding `C[C@@H]1O[C@@H](Oc2ccc(CC#N)cc2)[C@H](O)[C@H](O)[C@H]1O`, in the assay on Rattus norvegicus [3], the outcome was inactive.

As for `CC(=O)O[C@@H]1[C@@H](O)[C@@H](O)[C@H](Oc2ccc(CN=C=S)cc2)O[C@H]1C`, in the assay on Rattus norvegicus [4], the Activity turned out to be 34.91%. For the same molecule, the outcome in the assay with Rattus norvegicus [3] was Active. Regarding `CC(=O)O[C@@H]1[C@@H](O)[C@@H](O)[C@H](Oc2ccc(CC#N)cc2)O[C@H]1C`, the result with Rattus norvegicus [3] was inactive.

`CC(=O)OCC[N+](C)(C)C` [ACETYLCHOLINE]: the Activity in the assay on Rattus norvegicus [5] was determined as 59.5%.
